# Test results as given in patent publication US7482453B2, “Process for the manufacture of (+)-(S)-clopidogrel bisulfate form-1” (Wockhardt Ltd., priority 2003, dated 2009).
# Where a name gives a salt, the structure may show the parent alone.
# Experiments:
# [1] = tested on: platelet aggregation; settings: cited from earlier work; for Platelet aggregation inhibiting activity of the enantiomers: as described in EP 281459
# [2] = versus Aspirin; cited from earlier work
# [3] = Form-I obtained by the ethyl acetate process
smiles,measurement,setting,value
"COC(=O)C(c1ccccc1Cl)N1CCc2sccc2C1 (single isomer, unassigned) [levo-rotatory isomer]",Platelet aggregation inhibiting activity of the enantiomers,[1],less active
"COC(=O)[C@H](c1ccccc1Cl)N1CCc2sccc2C1 [Clopidogrel hydrogen sulfate, bisulfate of methyl-(+)-(S)-α-(2-chlorophenyl)-4,5,6,7-tetrahydrothieno[3,2,-c]pyridine-5-acetate]",Platelet aggregation inhibiting activity of the enantiomers,[1],excellent platelet aggregation inhibiting activity
COC(=O)[C@H](c1ccccc1Cl)N1CCc2sccc2C1 [Clopidogrel],Effectiveness in blocking platelet aggregation compared with Aspirin,"[1]; recent studies, versus Aspirin",more effective in blocking platelet aggregation than Asprin
same,Gastrointestinal bleeding compared with Aspirin,[2],much less gastrointestinal bleeding than Asprin
"COC(=O)[C@H](c1ccccc1Cl)N1CCc2sccc2C1 [Form-I, Methyl-(+)-(S)-α-(2-Chlorophenyl)-6,7-dihydrothieno[3,2-c]pyridine-5(4H)-acetate bisulfate Form-I]",Stability of the crystal form / conversion to other forms,[3],stable and does not convert to any other forms
